Results: ChEMBL document CHEMBL1125749, “trans-3-n-propyl-L-proline is a highly favorable, conformationally restricted replacement for methionine in the C-terminal tetrapeptide of cholecystokinin. Stereoselective synthesis of 3-allyl- and 3-n-propyl-L-proline derivatives from 4-hydroxy-L-proline” (J Med Chem, 1991)
pIC50: −log10 of the molar value. Square brackets hold non-standard residues; d marks the D form. Peptide text beside a SMILES is read from it. * marks the point of attachment. Nle = CCCC[C@H](N)C(=O)O; Boc = CC(C)(C)OC(=O)*

Molecular target: T1, Cholecystokinin receptor type A (Cavia porcellus, UniProt Q63931)
T1 sequence (Q63931 whole entry): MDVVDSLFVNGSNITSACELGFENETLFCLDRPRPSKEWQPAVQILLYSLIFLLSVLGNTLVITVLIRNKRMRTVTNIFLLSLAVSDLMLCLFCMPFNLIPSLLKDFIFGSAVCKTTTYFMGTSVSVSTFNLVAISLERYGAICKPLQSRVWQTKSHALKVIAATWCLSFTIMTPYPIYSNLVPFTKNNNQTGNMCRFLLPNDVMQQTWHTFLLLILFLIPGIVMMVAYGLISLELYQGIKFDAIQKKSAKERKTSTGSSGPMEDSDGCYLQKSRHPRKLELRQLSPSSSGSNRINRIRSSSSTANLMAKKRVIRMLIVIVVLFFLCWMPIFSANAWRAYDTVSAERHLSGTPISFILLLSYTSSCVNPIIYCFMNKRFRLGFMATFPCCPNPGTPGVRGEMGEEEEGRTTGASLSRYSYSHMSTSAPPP
Assay: Compound was tested for its inhibitory activity in pancreatic cholecystokinin type A receptor in guinea pig

Compound	pIC50
CC(C)(C)OC(=O)N[C@@H](Cc1c[nH]c2ccccc12)C(=O)N1CCC[C@H]1C(=O)N[C@@H](CC(=O)O)C(=O)N[C@@H](Cc1ccccc1)C(N)=O (Boc-WPDF-NH2)	5.68
C[C@H](NC(=O)[C@H](Cc1c[nH]c2ccccc12)NC(=O)OC(C)(C)C)C(=O)N[C@@H](CC(=O)O)C(=O)N[C@@H](Cc1ccccc1)C(N)=O (Boc-WADF-NH2)	4.99
CCC[C@@H]1CCN(C(=O)[C@H](Cc2c[nH]c3ccccc23)NC(=O)OC(C)(C)C)[C@@H]1C(=O)N[C@@H](CC(=O)O)C(=O)N[C@@H](Cc1ccccc1)C(N)=O	5.57
CCCC[C@H](NC(=O)[C@H](Cc1c[nH]c2ccccc12)NC(=O)OC(C)(C)C)C(=O)N[C@@H](CC(=O)O)C(=O)N[C@@H](Cc1ccccc1)C(N)=O (Boc-W[Nle]DF-NH2)	5.40
